Drawing on patent US20250388592A1 (REMYND N.V., priority 2022, published 2025), this text covers EC50 for 33 compounds.

The test system of this experiment is M17_3TAU(P301L) cells. Nature of the experiment: TAU-induced cytotoxicity (LDH) in the neuroblastoma tauopathy model. It is filed as cell-based. As to conditions: Homo sapiens, 168 h, inhibition of TAU-induced toxicity, 7 days retinoic acid differentiation, LDH readout. From the text: A TAU expression plasmid was constructed by sub-cloning the cDNA encoding for human TAU-P301L protein, wherein proline at position 301 is substituted by a leucine residue, into mammalian expression vector pcDNA3.1 resulting in the plasmid pcDNA3.1-TAUP301L. Plasmids pcDNA3.1 and pcDNA3.1-TAU P301L were transfected into human neuroblastoma cells (BE-M17; ATCC No. CRL-2267™) using lipofectamine reagent and subsequently, independent clonal cell lines with the plasmids stably integrated into the genome were selected by antibiotic resistance selection (Geneticin (G418)), resulting in cell lines M17.pcDNA3 and M17_3TAUP301L. Expression of the TAUP301 L gene in the M17_3TAUP301 L cells was confirmed by Western blot analysis.
Differentiation of the cells with RA leads to phosphorylation and subsequent aggregation of TAU, inducing a tauopathy in these cells. Cytotoxicity of cells was measured by quantification of lactate dehydrogenase (LDH) levels. In dead cells LDH is leaked out of the cells into the medium due to a loss of plasma-membrane integrity.
Briefly, 3 days preceding the experiment pre-cultures of M17.pcDNA3 and M17_3TAU(P301L) cells were prepared, starting from a stock culture, at a density of 50.000-100.000 cells/cm2 in detection medium (Optimem Reduced Serum without phenol red (Gibco, Cat. 31985-047) supplemented with 1% fetal calf serum (FCS), 1 mM sodium pyruvate, 1×non-essential amino acids (NEAA), 500 μg/ml G418 and 0.5×antibiotic/antimycotic (ABAM)). At the day of the experiment these precultures were diluted to ˜[…] in detection medium without FCS and 60 μL of this suspension is dispensed per well into a 96-well microtiter plate. After 3 hours of incubation at 37° C./5% C02 an equal volume of detection medium containing 2.5 μM RA was added and subsequently incubated for 7 days at 37° C./5% CO2. After 7 days, LDH activity was determined using the Promega Cytotox 96 Non-Radioactive cytotoxicity assay (Cat. G1780), according the manufacturer's instructions. Cytotoxicity is measured as the ratio of LDH increase in the supernatant divided by the LDH increase in the total cell suspension (sum of the LDH measured in cells and supernatant). Toxicity was determined after 7 days of differentiation with retinoic acid in M17_3TAU(P301 L) cells compared to M17.pcDNA3 cells.
The M17_3TAU(P301L) cell line makes it possible to assess the ability of novel compounds to inhibit TAU-induced cytotoxicity. […] Compounds were tested for their ability to hamper TAU-induced toxicity at different concentrations, ranging from low non-effective concentrations to high potent concentrations. Afterwards, the dose-dependent inhibition curve was used to calculate their EC50 (Table 3B).

Molecules are shown by their SMILES.

By EC50 is commonly meant the concentration that produces a half-maximal response. Low values mean higher potency in that assay, high ones lower potency in that assay. In turn, `O=C(Cc1ccc(F)cc1)N1CC2(CN(CCCc3ccccc3)C2)C1` [Cpd B001, 2-(4-fluorophenyl)-1-(6-(3-phenylpropyl)-2,6-diazaspiro[3.3]heptan-2-yl)ethanone] gave a half-maximal effective concentration (EC50) of 10.7 nM.

On to `O=C(Cc1ccc(F)cc1)N1CC2(CN(Cc3ccccc3)C2)C1` [Cpd B002, 1-(6-benzyl-2,6-diazaspiro[3.3]heptan-2-yl)-2-(4-fluorophenyl)ethanone], for which it took 9.52 nM to reach a half-maximal effect (EC50).

In the case of `O=C(Cc1ccc(Cl)cc1)N1CC2(CN(Cc3ccccc3)C2)C1` [Cpd B003, 1-(6-benzyl-2,6-diazaspiro[3.3]heptan-2-yl)-2-(4-chlorophenyl)ethanone], a half-maximal response (EC50) required 6.97 nM.

On to `O=C(Cc1ccc(Cl)cc1)N1CC2(CN(Cc3ccc(Cl)cc3)C2)C1` [Cpd B004, 1-(6-(4-chlorobenzyl)-2,6-diazaspiro[3.3]heptan-2-yl)-2-(4-chlorophenyl)ethanone], for which the response was half-maximal at 2.86 nM (EC50).

The compound `COc1cc(CN2CC3(C2)CN(C(=O)Cc2ccc(Cl)cc2)C3)ccn1` [Cpd B005, 2-(4-chlorophenyl)-1-(6-((2-methoxypyridin-4-yl)methyl)-2,6-diazaspiro[3.3]heptan-2-yl)ethanone] displayed an EC50 of 162 nM.

`Cc1ccccc1CN1CC2(C1)CN(C(=O)Cc1ccc(Cl)cc1)C2` [Cpd B006, 2-(4-chlorophenyl)-1-(6-(2-methylbenzyl)-2,6-diazaspiro[3.3]heptan-2-yl)ethanone] showed an EC50 of 2.91 nM.

`O=C(Cc1ccc(F)c(F)c1)N1CC2(CN(Cc3ccccc3)C2)C1` [Cpd B007, 1-(6-benzyl-2,6-diazaspiro[3.3]heptan-2-yl)-2-(3,4-difluorophenyl)ethanone] registered an EC50 of 4.16 nM. The EC50 values of the last two compounds are within 1.5-fold of each other.

Take `COc1cccc(CN2CC3(C2)CN(C(=O)Cc2ccc(F)cc2)C3)c1` [Cpd B008, 2-(4-Fluoro-phenyl)-1-[6-(3-methoxy-benzyl)-2,6-diaza-spiro[3.3]hept-2-yl]-ethanone]: the EC50 turned out to be 4 nM.

On to `Cc1ccc(CN2CC3(C2)CN(C(=O)Cc2ccc(F)cc2)C3)cc1` [Cpd B009, 2-(4-Fluoro-phenyl)-1-[6-(4-methyl-benzyl)-2,6-diaza-spiro[3.3]hept-2-yl]-ethanone], for which the EC50 is 1.06 nM.

The compound `O=C(Cc1ccc(F)cc1)N1CC2(CN(Cc3ccccn3)C2)C1` [Cpd B010, 2-(4-Fluoro-phenyl)-1-(6-pyridin-2-ylmethyl-2,6-diaza-spiro[3.3]hept-2-yl)-ethanone] had a concentration for a half-maximal effect (EC50) of 47.5 nM. This EC50 lies about 45-fold higher than the previous one.

In turn, `O=C(Cc1ccc(F)cc1)N1CC2(CN(Cc3cccc(Cl)c3)C2)C1` [Cpd B011, 1-[6-(3-Chloro-benzyl)-2,6-diaza-spiro[3.3]hept-2-yl]-2-(4-fluoro-phenyl)-ethanone] yielded an EC50 of 2.07 nM.

Compound `NC(=O)c1cccc(CN2CC3(C2)CN(C(=O)Cc2ccc(F)cc2)C3)c1` [Cpd B012, 3-{6-[2-(4-Fluoro-phenyl)-acetyl]-2,6-diaza-spiro[3.3]hept-2-ylmethyl}-benzamide] came in with an EC50 of 45.2 nM.

The compound `O=C(Cc1ccc(F)cc1)N1CC2(CN(Cc3ccccc3OC(F)(F)F)C2)C1` [Cpd B013, 2-(4-Fluoro-phenyl)-1-[6-(2-trifluoromethoxy-benzyl)-2,6-diaza-spiro[3.3]hept-2-yl]-ethanone] came in with a concentration for a half-maximal effect (EC50) of 6.27 nM. This EC50 is about 7.2-fold lower than that of the compound before.

As for `COC(=O)c1ccc(CN2CC3(C2)CN(C(=O)Cc2ccc(F)cc2)C3)cc1` [Cpd B014, 4-{6-[2-(4-Fluoro-phenyl)-acetyl]-2,6-diaza-spiro[3.3]hept-2-ylmethyl}-benzoic acid methyl ester], the EC50 worked out at 0.92 nM.

Compound `CC(c1cccc(C(F)(F)F)c1)N1CC2(CN(C(=O)Cc3ccc(F)cc3)C2)C1` (stereo not drawn) [Cpd B015, 2-(4-Fluoro-phenyl)-1-{6-[1-(3-trifluoromethyl-phenyl)-ethyl]-2,6-diaza-spiro[3.3]hept-2-yl}-ethanone] displayed an EC50 of 9.54 nM.

On to `CC(c1ccccc1)N1CC2(CN(C(=O)Cc3ccc(F)cc3)C2)C1` (stereo not drawn) [Cpd B016, 2-(4-Fluoro-phenyl)-1-[6-(1-phenyl-ethyl)-2,6-diaza-spiro[3.3]hept-2-yl]-ethanone], for which the EC50 is 5.51 nM.

The compound `Cc1cccc(CN2CC3(C2)CN(C(=O)Cc2ccc(F)cc2)C3)n1` [Cpd B017, 2-(4-Fluoro-phenyl)-1-[6-(6-methyl-pyridin-2-ylmethyl)-2,6-diaza-spiro[3.3]hept-2-yl]-ethanone] yielded a 50% effective concentration (EC50) of 26.7 nM. This EC50 is about 4.8-fold higher than that of the compound before.

The compound `O=C(Cc1ccc(F)cc1)N1CC2(CN(Cc3ccccc3Cl)C2)C1` [Cpd B018, 1-[6-(2-Chloro-benzyl)-2,6-diaza-spiro[3.3]hept-2-yl]-2-(4-fluoro-phenyl)-ethanone] showed a concentration giving a half-maximal response (EC50) of 0.97 nM.

Compound `Cc1nc(CN2CC3(C2)CN(C(=O)Cc2ccc(F)cc2)C3)cs1` [Cpd B019, 2-(4-Fluoro-phenyl)-1-[6-(2-methyl-thiazol-4-ylmethyl)-2,6-diaza-spiro[3.3]hept-2-yl]-ethanone] yielded a 50% effective concentration (EC50) of 71.8 nM.

As to `Cn1ccnc1CN1CC2(C1)CN(C(=O)Cc1ccc(F)cc1)C2` [Cpd B020, 2-(4-Fluoro-phenyl)-1-[6-(1-methyl-1H-imidazol-2-ylmethyl)-2,6-diaza-spiro[3.3]hept-2-yl]-ethanone], the EC50 turned out to be 422 nM.

`Cc1cc(CN2CC3(C2)CN(C(=O)Cc2ccc(F)cc2)C3)no1` [Cpd B021, 2-(4-Fluoro-phenyl)-1-[6-(5-methyl-isoxazol-3-ylmethyl)-2,6-diaza-spiro[3.3]hept-2-yl]-ethanone] gave an EC50 of 167 nM. This EC50 lies about 2.5-fold lower than the previous one.

Turning to `O=C(Cc1ccc(F)cc1)N1CC2(CN(Cc3cscn3)C2)C1` [Cpd B022, 2-(4-Fluoro-phenyl)-1-(6-thiazol-4-ylmethyl-2,6-diaza-spiro[3.3]hept-2-yl)-ethanone], the midpoint of the response, the EC50, lay at 149 nM.

In turn, `O=C(Cc1ccc(F)cc1)N1CC2(CN(CCc3cccc(C(F)(F)F)c3)C2)C1` [Cpd B023, 2-(4-Fluoro-phenyl)-1-{6-[2-(3-trifluoromethyl-phenyl)-ethyl]-2,6-diaza-spiro[3.3]hept-2-yl}-ethanone] registered a 50% effective concentration (EC50) of 18.6 nM.

On to `O=C(Cc1ccc(F)cc1)N1CC2(CN(CCc3cccc(F)c3)C2)C1` [Cpd B024, 2-(4-Fluoro-phenyl)-1-{6-[2-(3-fluoro-phenyl)-ethyl]-2,6-diaza-spiro[3.3]hept-2-yl}-ethanone], for which the EC50 was 26.7 nM.

In turn, `COc1ccc(CCN2CC3(C2)CN(C(=O)Cc2ccc(F)cc2)C3)cc1` [Cpd B025, 2-(4-Fluoro-phenyl)-1-{6-[2-(4-methoxy-phenyl)-ethyl]-2,6-diaza-spiro[3.3]hept-2-yl}-ethanone] showed an EC50 of 17.9 nM.

`Cc1ccc(CCN2CC3(C2)CN(C(=O)Cc2ccc(F)cc2)C3)cc1` [Cpd B026, 2-(4-Fluoro-phenyl)-1-[6-(2-p-tolyl-ethyl)-2,6-diaza-spiro[3.3]hept-2-yl]-ethanone]: the EC50 worked out at 26.1 nM.

In turn, `O=C(Cc1ccc(F)cc1)N1CC2(CN(CCc3ccc(F)cc3)C2)C1` [Cpd B027, 2-(4-Fluoro-phenyl)-1-{6-[2-(4-fluoro-phenyl)-ethyl]-2,6-diaza-spiro[3.3]hept-2-yl}-ethanone] had an EC50 of 21.7 nM. This EC50 and that of the compound before are within 1.5-fold of each other.

For the compound `Cc1cccc(CCN2CC3(C2)CN(C(=O)Cc2ccc(F)cc2)C3)c1` [Cpd B028, 2-(4-Fluoro-phenyl)-1-[6-(2-m-tolyl-ethyl)-2,6-diaza-spiro[3.3]hept-2-yl]-ethanone], it took 12.9 nM to reach a half-maximal effect (EC50).

In turn, `CC(C)(C(=O)c1ccccc1)N1CC2(CN(C(=O)Cc3ccc(F)cc3)C2)C1` [Cpd B029, 2-{6-[2-(4-Fluoro-phenyl)-acetyl]-2,6-diaza-spiro[3.3]hept-2-yl}-2-methyl-1-phenyl-propan-1-one] showed an EC50 of 8.3 nM.

As to `O=C(Cc1ccc(F)cc1)N1CC2(CN(CCc3ccccc3)C2)C1` [Cpd B030, 2-(4-Fluoro-phenyl)-1-(6-phenethyl-2,6-diaza-spiro[3.3]hept-2-yl)-ethanone], the EC50 amounted to 37.7 nM. This EC50 lies about 4.5-fold higher than the previous one.

For `COc1cccc(CN2CC3(C2)CN(C(=O)Cc2ccc(Cl)cc2)C3)c1` [Cpd B031, 2-(4-chlorophenyl)-1-(6-(3-methoxybenzyl)-2,6-diazaspiro[3.3]heptan-2-yl)ethanone], the EC50 is 2.01 nM.

Take `O=C(Cc1ccc(Cl)cc1)N1CC2(CN(Cc3ccccn3)C2)C1` [Cpd B032, 2-(4-chlorophenyl)-1-(6-(pyridin-2-ylmethyl)-2,6-diazaspiro[3.3]heptan-2-yl)ethanone]: a half-maximal response (EC50) required 48.5 nM.

As for `O=C(Cc1ccc(Cl)cc1)N1CC2(CN(Cc3cccc(Cl)c3)C2)C1` [Cpd B033, 1-(6-(3-chlorobenzyl)-2,6-diazaspiro[3.3]heptan-2-yl)-2-(4-chlorophenyl)ethanone], the concentration giving a half-maximal response (EC50) turned out to be 2.46 nM.
